How the values were obtained:
[1] = Mouse oral bioavailability; assay type: in vivo; settings: C57BL/6J mice, PO 10 mg/kg vs IV 1 mg/kg, plasma AUC, read-out: % F (Mouse), oral bioavailability
Procedure: The test compound is administered to C57BL/6J mice intravenously (IV) at 1 mg/kg or orally (PO) at 10 mg/kg using vehicles composed of 10% DMA, 70% Polyethylene glycol 400, and 20% purified water; or 10% DMA, 50% Polyethylene glycol 400, and 40% purified water. Serial blood collections occur at 0.08, 0.25, 0.5, 1, 2, 4, 8 and 24 h post IV bolus dose administration, and 0.25, 0.5, 1, 2, 4, 8 and 24 h post oral dose administration. Blood samples are treated with EDTA anticoagulant. Plasma is isolated by centrifugation and stored at −70° C. until analysis by LC-MS/MS. Test article concentration is determined in plasma and uploaded into the Phoenix WinNonlin system where noncompartmental analysis is used to calculate Area Under the Curve (AUC) for both IV and PO arms. Bioavailability (% F) is calculated via the following equation,
% F=(AUCPO×DoseIV)/(AUCIV×DosePO)×100

[2] = molecular target: T1, IL-17A/F (Homo sapiens, UniProt Q16552+Q96PD4); assay: IL-17A/F HEK-Blue cell assay (SEAP reporter); assay type: cell-based; settings: HEK-Blue IL-17A reporter cells, IL17A/F 5 ng/mL, 20 hours, SEAP read at A630; read-out: HEK-Blue IL17AF (IC50 for IL-17A/F inhibition)
T1 construct: purchased R&D Systems
T1 sequence (Q16552 24-155): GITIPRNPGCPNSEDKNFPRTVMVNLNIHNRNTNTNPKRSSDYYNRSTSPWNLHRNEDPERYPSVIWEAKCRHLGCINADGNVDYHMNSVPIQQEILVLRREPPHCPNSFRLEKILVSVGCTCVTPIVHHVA
T1 sequence (Q96PD4 31-163): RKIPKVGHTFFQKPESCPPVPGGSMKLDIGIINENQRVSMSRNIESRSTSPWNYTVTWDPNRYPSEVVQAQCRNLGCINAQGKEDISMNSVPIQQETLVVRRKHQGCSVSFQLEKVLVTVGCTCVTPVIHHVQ

[3] = molecular target: T2, IL-17A/A (Homo sapiens, UniProt Q16552); assay: IL-17A/A HEK-Blue cell assay (SEAP reporter); assay type: cell-based; settings: HEK-Blue IL-17A reporter cells, IL17A/A 5 ng/mL, 20 hours, SEAP read at A630; read-out: HEK-Blue IL17AA (IC50 for IL-17A/A inhibition)
T2 construct: purchased Genscript Z03228
T2 sequence (Q16552 24-155): T1 sequence (Q16552 24-155)

| Structure (SMILES) | bioavailability [1] | IC50 [2] | IC50 [3] |
| --- | --- | --- | --- |
| CCn1nccc1C(=O)N[C@H](c1cn2nc(C[C@H]3C[C@@H](C(F)(F)F)CNC3=O)c(C3CCCOC3)nc2n1)[C@@H]1CCCC(F)(F)C1 (single isomer, unassigned) [Compound 69] | 40% | 100 to 1000 nM | < 100 nM |
| CCn1nccc1C(=O)N[C@H](c1cn2nc(C[C@H]3C[C@@H](C(F)(F)F)CNC3=O)c(C3CCCOC3)nc2n1)[C@H]1CCCC(F)(F)C1 (single isomer, unassigned) [Compound 70] | 45% | < 100 nM | < 100 nM |
| CCn1nccc1C(=O)N[C@H](c1cn2nc(C[C@H]3C[C@@H](C(F)(F)F)CNC3=O)c(CN3CCN(C)CC3)nc2n1)C1CCC(F)(F)CC1 [Compound 412, N—((S)-(4,4-difluorocyclohexyl)(3-((4-methylpiperazin-1-yl)methyl)-2-(((3R,5R)-2-oxo-5-(trifluoromethyl)piperidin-3-yl)methyl)imidazo[1,2-b][1,2,4]triazin-6-yl)methyl)-1-ethyl-1H-pyrazole-5-carboxamide] |  | > 1000 nM | 100 to 1000 nM |
| CCn1nccc1C(=O)N[C@H](c1cn2nc(C[C@H]3C[C@@H](C(F)(F)F)CNC3=O)c(C3CCCN3C)nc2n1)C1CCC(F)(F)CC1 (stereo partly drawn) [Compound 413] |  | > 1000 nM | 100 to 1000 nM |
| CC(C)(C)n1nccc1C(=O)N[C@H](c1cn2nc(C[C@H]3C[C@@H](C(F)(F)F)CNC3=O)c(C3CCOCC3)nc2n1)C1CCC(F)(F)CC1 [Compound 414, 1-(tert-butyl)-N—((S)-(4,4-difluorocyclohexyl)(2-(((3R,5R)-2-oxo-5-(trifluoromethyl)piperidin-3-yl)methyl)-3-(tetrahydro-2H-pyran-4-yl)imidazo[1,2-b][1,2,4]triazin-6-yl)methyl)-1H-pyrazole-5-carboxamide] |  | > 1000 nM | < 100 nM |
| CCn1cnnc1C(=O)N[C@H](c1cn2nc(C[C@H]3C[C@@H](C(F)(F)F)CNC3=O)c(C3CCOCC3)nc2n1)C1CCC(F)(F)CC1 [Compound 415] |  | > 1000 nM | 100 to 1000 nM |
| CCn1nccc1C(=O)N[C@H](c1cn2nc(C[C@H]3C[C@@H](C(F)(F)F)CNC3=O)c(N3CCOC(COC)C3)nc2n1)C1CCC(F)(F)CC1 (stereo partly drawn) [Compound 416, N-((1S)-(4,4-difluorocyclohexyl)(3-(2-(methoxymethyl)morpholino)-2-(((3R,5R)-2-oxo-5-(trifluoromethyl)piperidin-3-yl)methyl)imidazo[1,2-b][1,2,4]triazin-6-yl)methyl)-1-ethyl-1H-pyrazole-5-carboxamide] |  | 100 to 1000 nM | < 100 nM |
| CCn1nccc1C(=O)N[C@H](c1cn2nc(C[C@H]3C[C@@H](C(F)(F)F)CNC3=O)c(OC(C)C)nc2n1)C1CCC(F)(F)CC1 [Compound 417, N—((S)-(4,4-difluorocyclohexyl)(3-isopropoxy-2-(((3R,5R)-2-oxo-5-(trifluoromethyl)piperidin-3-yl)methyl)imidazo[1,2-b][1,2,4]triazin-6-yl)methyl)-1-ethyl-1H-pyrazole-5-carboxamide] |  | > 1000 nM | < 100 nM |
| CCn1ccc(C(=O)N[C@H](c2cn3nc(C[C@H]4C[C@@H](C(F)(F)F)CNC4=O)c(C4CCOCC4)nc3n2)C2CCC(F)(F)CC2)n1 [Compound 418, N—((S)-(4,4-difluorocyclohexyl)(2-(((3R,5R)-2-oxo-5-(trifluoromethyl)piperidin-3-yl)methyl)-3-(tetrahydro-2H-pyran-4-yl)imidazo[1,2-b][1,2,4]triazin-6-yl)methyl)-1-ethyl-1H-pyrazole-3-carboxamide] |  | > 1000 nM | < 100 nM |
| O=C(N[C@H](c1cn2nc(C[C@H]3C[C@@H](C(F)(F)F)CNC3=O)c(C3CCOCC3)nc2n1)C1CCC(F)(F)CC1)c1ccnn1C1CC1 [Compound 419] |  | 100 to 1000 nM | < 100 nM |
| CCn1nccc1C(=O)N[C@H](c1cn2nc(C[C@H]3C[C@@H](C(F)(F)F)CNC3=O)c(N3C[C@H](C)O[C@@H](C)C3)nc2n1)C1CCC(F)(F)CC1 [Compound 420, N—((S)-(4,4-difluorocyclohexyl)(3-((2S,6S)-2,6-dimethylmorpholino)-2-(((3R,5R)-2-oxo-5-(trifluoromethyl)piperidin-3-yl)methyl)imidazo[1,2-b][1,2,4]triazin-6-yl)methyl)-1-ethyl-1H-pyrazole-5-carboxamide] |  | 100 to 1000 nM | < 100 nM |
| CCc1nonc1C(=O)N[C@H](c1cn2nc(C[C@H]3C[C@@H](C(F)(F)F)CNC3=O)c(N3CCN(CCOC)CC3)nc2n1)C1CCC(F)(F)CC1 [Compound 421, N—((S)-(4,4-difluorocyclohexyl)(3-(4-(2-methoxyethyl)piperazin-1-yl)-2-(((3R,5R)-2-oxo-5-(trifluoromethyl)piperidin-3-yl)methyl)imidazo[1,2-b][1,2,4]triazin-6-yl)methyl)-4-ethyl-1,2,5-oxadiazole-3-carboxamide] |  | > 1000 nM | < 100 nM |
| CCn1ncnc1C(=O)N[C@H](c1cn2nc(C[C@H]3C[C@@H](C(F)(F)F)CNC3=O)c(C3CCOCC3)nc2n1)[C@H]1CCCC(F)(F)C1 [Compound 422, N—((S)—((S)-3,3-difluorocyclohexyl)(2-(((3R,5R)-2-oxo-5-(trifluoromethyl)piperidin-3-yl)methyl)-3-(tetrahydro-2H-pyran-4-yl)imidazo[1,2-b][1,2,4]triazin-6-yl)methyl)-1-ethyl-1H-1,2,4-triazole-5-carboxamide] |  | 100 to 1000 nM | < 100 nM |
| CCn1nccc1C(=O)N[C@H](c1cn2nc(C[C@H]3CC4(CC4)CNC3=O)c(C3CCOCC3)nc2n1)C1CCC(F)(F)CC1 [Compound 423] |  | > 1000 nM | < 100 nM |
| CCn1nccc1C(=O)N[C@H](c1cn2nc(C[C@@H]3CC4(CC4)CNC3=O)c(C3CCOCC3)nc2n1)C1CCC(F)(F)CC1 [Compound 424] |  | 100 to 1000 nM | < 100 nM |
| CCn1nccc1C(=O)N[C@H](c1cn2nc(C[C@@H]3C(=O)NC4CC3C4)c(C3CCOCC3)nc2n1)C1CCC(F)(F)CC1 [Compound 425] |  | > 1000 nM | 100 to 1000 nM |
| CCn1nccc1C(=O)N[C@H](c1cn2nc(C[C@H]3C(=O)NC4CC3C4)c(C3CCOCC3)nc2n1)C1CCC(F)(F)CC1 [Compound 426] |  | > 1000 nM | < 100 nM |
| CCn1nccc1C(=O)N[C@H](c1cn2nc(C[C@@H]3C(=O)NC[C@@H]4C[C@@H]43)c(C3CCOCC3)nc2n1)C1CCC(F)(F)CC1 [Compound 427] |  | > 1000 nM | 100 to 1000 nM |
| CCn1nccc1C(=O)N[C@H](c1cn2nc(C[C@@H]3C(=O)NC[C@H]4C[C@H]43)c(C3CCOCC3)nc2n1)C1CCC(F)(F)CC1 [Compound 428] |  | > 1000 nM | < 100 nM |
| CCn1nccc1C(=O)N[C@H](c1cn2nc(C[C@H]3C(=O)NC[C@H]4C[C@H]43)c(C3CCOCC3)nc2n1)C1CCC(F)(F)CC1 [Compound 429] |  | > 1000 nM | 100 to 1000 nM |
| O=C(N[C@H](c1cn2nc(C[C@H]3C[C@@H](C(F)(F)F)CNC3=O)c(C3CCOCC3)nc2n1)C1CCC(F)(F)CC1)c1ccnn1CCN1CCCC1C(F)(F)F (stereo partly drawn) [Compound 430, N—((S)-(4,4-difluorocyclohexyl)(2-(((3R,5R)-2-oxo-5-(trifluoromethyl)piperidin-3-yl)methyl)-3-(tetrahydro-2H-pyran-4-yl)imidazo[1,2-b][1,2,4]triazin-6-yl)methyl)-1-(2-(2-(trifluoromethyl)pyrrolidin-1-yl)ethyl)-1H-pyrazole-5-carboxamide] |  | 100 to 1000 nM | < 100 nM |
| CCn1nccc1C(=O)N[C@H](c1cn2nc(C[C@H]3C[C@@H](C(F)(F)F)CNC3=O)c(N3CCN(C4COC4)CC3)nc2n1)C1CCC(F)(F)CC1 [Compound 433, N—((S)-(4,4-difluorocyclohexyl)(3-(4-(oxetan-3-yl)piperazin-1-yl)-2-(((3R,5R)-2-oxo-5-(trifluoromethyl)piperidin-3-yl)methyl)imidazo[1,2-b][1,2,4]triazin-6-yl)methyl)-1-ethyl-1H-pyrazole-5-carboxamide] |  | 100 to 1000 nM | < 100 nM |
| CCn1nccc1C(=O)N[C@H](c1cn2nc(CN3C[C@@H](C(F)(F)F)NC3=O)c(C3CCOCC3)nc2n1)C1CCC(F)(F)CC1 [Compound 434] |  | > 1000 nM | 100 to 1000 nM |
| CCn1nccc1C(=O)N[C@H](c1cn2nc(CN3CC(F)(F)CNC3=O)c(C3CCOCC3)nc2n1)C1CCC(F)(F)CC1 [Compound 435] |  | > 1000 nM | 100 to 1000 nM |
| CCn1nccc1C(=O)N[C@H](c1cn2nc(CN3C[C@@H](C(F)(F)F)CNC3=O)c(C3CCOCC3)nc2n1)C1CCC(F)(F)CC1 [Compound 436] |  | > 1000 nM | 100 to 1000 nM |
| CCn1nccc1C(=O)N[C@H](c1cn2nc(CN3C[C@H](C(F)(F)F)CNC3=O)c(C3CCOCC3)nc2n1)C1CCC(F)(F)CC1 [Compound 437] |  | > 1000 nM | 100 to 1000 nM |

Source: patent US20260226068A1, “IMIDAZOTRIAZINE IL-17A MODULATORS AND USES THEREOF” (DICE ALPHA, INC., priority 2023, published 2026)
